Results on four sequences are retold here after US10829538B2, “Identification of immunogenic MHC class II peptides for immune-based therapy” (THE TRUSTEES OF THE UNIVERSITY OF PENNSYLVANIA, priority 2015, dated 2020).

In assay [1] the test system is HER3 ECD-sensitized CD4+ Th1 cells. The assay is described as follows: Sequential screening of HER3 ECD peptide library: HER3 ECD-sensitized CD4+ Th1 restimulated against peptide-pulsed iDCs, IFN-γ ELISA. It is filed as cell-based, human. The following applies: for reactivity of CD4+ T cells across donors (IFN-γ secretion): 5-6 subjects with known anti-HER3 ECD reactivity.

The next assay relates to HLA-DR, DP, DQ. The assay is described as follows: MHC class II promiscuity of CD4+ Th1 responses (HLA-DR, DP, DQ typing of donors). It is filed as cell-based, human. Conditions: DQ subtypes.
[2] abbreviates: Donor # 15107-26, previously sensitized to HER3 ECD.
Where [3] appears, read: Donor # 15107-31, previously sensitized to HER3 ECD.
Where [4] appears, read: Donor # 15107-38, previously sensitized to HER3 ECD.
Setting [5] is: Donor # 26113-03, previously sensitized to HER3 ECD.
Where [6] appears, read: Donor # 15107-24, previously sensitized to HER3 ECD.

Regarding “AGRIYISANRQLCYH [HER3451-465, HER3 ECD MHC class II immunogenic peptide, positions 451-465]”, the entries for the “reactivity of CD4+ T cells across donors (IFN-γ secretion)” value (shortened to “reactivity of CD4+ T cells across donors”) in assay [1] and in assay [1] (listed as HER3(451-465)) were “react across most donors” and “reproducibly identified”, respectively. The “immunogenic CD4+ HER3 ECD peptide identified” value in assay [1] (setting [2]), in assay [1] (setting [3]), in assay [1] (setting [4]) and in assay [1] (setting [5]) was “✓” each time. In addition, the “MHC class II promiscuity” value with HLA-DR, DP, DQ is “promiscuous across HLA-DR, DP, and DQ subtypes”.
As for “CEVVMGNLEIVLTGH [HER356-70, HER3 ECD MHC class II immunogenic peptide, positions 56-70]”, the “reactivity of CD4+ T cells across donors” value in assay [1] is reported as “react across most donors”; in assay [1] (listed as HER3(56-70)), “reproducibly identified”. Also, the “immunogenic CD4+ HER3 ECD peptide identified” value in assay [1] (setting [6]), in assay [1] (setting [2]), in assay [1] (setting [4]) and in assay [1] (setting [5]) was “✓” in each case. For the same sequence, the “MHC class II promiscuity” value in the assay on HLA-DR, DP, DQ is “promiscuous across HLA-DR, DP, and DQ subtypes”.
With “SWPPHMHNFSVFSNL [HER3401-415, HER3 ECD MHC class II immunogenic peptide, positions 401-415]”, the entries for the “reactivity of CD4+ T cells across donors” value in assay [1] and in assay [1] (listed as HER3(401-415)) were “react across most donors” and “reproducibly identified”, respectively. The “immunogenic CD4+ HER3 ECD peptide identified” value in assay [1] (setting [6]), in assay [1] (setting [2]) and in assay [1] (setting [5]) was “✓” throughout. Further, the “MHC class II promiscuity” value with HLA-DR, DP, DQ was “promiscuous across HLA-DR, DP, and DQ subtypes”.
Take “TTIGGRSLYNRGFSL [HER3416-430, HER3 ECD MHC class II immunogenic peptide, positions 416-430]”: the figures for the “reactivity of CD4+ T cells across donors” value in assay [1] and in assay [1] (listed as HER3(416-430)) were “react across most donors” and “reproducibly identified”, respectively. The “immunogenic CD4+ HER3 ECD peptide identified” value in assay [1] (setting [6]), in assay [1] (setting [2]), in assay [1] (setting [3]) and in assay [1] (setting [5]) was “✓” each time. Also, the “MHC class II promiscuity” value in the assay with HLA-DR, DP, DQ is “promiscuous across HLA-DR, DP, and DQ subtypes”.
